# Measurements as given in PubChem BioAssay (NCI).
#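 How tested: cells in 96-well plates exposed to compound for 48 hours at five concentrations. The concentration for 50% growth inhibition is given as GI50. TGI: total growth inhibition.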 Where a SMILES comes first, the peptide text is derived from it. The star is where a group is joined. Boc = CC(C)(C)OC(=O)*; OSu = O=C1CCC(=O)N1O*
# Tests used:
# Assay in all cases: NCI anticancer screen, dose series, 48 h
# HCT-15 colon = test system: HCT-15 colon
# IGROV1 ovarian = test system: IGROV1 ovarian
# KM12 colon = test system: KM12 colon
# NCI/ADR-RES ovarian = test system: NCI/ADR-RES ovarian
# OVCAR-4 ovarian = test system: OVCAR-4 ovarian
# RPMI-8226 leukemia = test system: RPMI-8226 leukemia
# SK-MEL-28 melanoma = test system: SK-MEL-28 melanoma
# SNB-19 CNS = test system: SNB-19 CNS
# T-47D breast = test system: T-47D breast
# UO-31 renal = test system: UO-31 renal
# MDA-N = test system: MDA-N
Structure (SMILES),GI50 (HCT-15 colon) [µM],TGI (HCT-15 colon) [µM],TGI (IGROV1 ovarian) [µM],GI50 (KM12 colon) [µM],TGI (KM12 colon) [µM],GI50 (NCI/ADR-RES ovarian) [µM],TGI (OVCAR-4 ovarian) [µM],GI50 (RPMI-8226 leukemia) [µM],TGI (RPMI-8226 leukemia) [µM],GI50 (SK-MEL-28 melanoma) [µM],TGI (SK-MEL-28 melanoma) [µM],GI50 (SNB-19 CNS) [µM],TGI (SNB-19 CNS) [µM],TGI (T-47D breast) [µM],GI50 (UO-31 renal) [µM],TGI (UO-31 renal) [µM],TGI (MDA-N) [µM],TGI (NCI/ADR-RES ovarian) [µM]
CCCCCCCCCC[C@@H](O)[C@H]1CC[C@H]([C@H]2CC[C@H]([C@H](O)CCCCCCCCCC[C@@H]3CC(CC(C)=O)C(=O)O3)O2)O1 (stereo not given in full),7.21,> 50,> 50,3.34,> 50,0.377,> 50,1.39,> 50,5.26,> 50,1.08,> 50,> 50,1.66,> 50,,
Cc1sc2nc3n(c(=O)c2c1C)N=CN(c1ccccc1)C3,,> 100,> 100,,> 100,,> 100,,> 100,,> 100,,> 100,> 100,,> 100,> 100,> 100
CCOC(=O)c1cc(=C2\CCN(CC(C)CC)C2=S)/c(=C(/O)CC)[nH]1 (stereo not given),,25.8,37.1,,32,,30.9,,25.4,,34.8,,34.7,30.9,,35.4,28.2,75.3
Cc1cc2c(c(C(=O)NCCC(=O)O)c1)Oc1c(cc(C)cc1C(=O)NCCC(=O)O)S2,,> 100,> 100,,> 100,,> 100,,> 100,,> 100,,> 100,> 100,,,> 100,> 100
O=C(/C(=C(/Br)I)c1ccccc1)c1ccccc1,,79.3,> 100,,38,,,,47.2,,,,> 100,59.8,,41.3,81.9,37.4
N#Cc1c(N)[nH]c(=S)c(C#N)c1-c1cccc(Cl)c1,,> 100,> 100,,> 100,,> 100,,94.5,,> 100,,> 100,,,> 100,37.8,> 100
Cc1c(S(=O)(=O)c2ccccc2)c(N)n(Cc2ccccc2)c1C,,> 100,> 100,,> 100,,> 100,,> 100,,> 100,,> 100,,,> 100,> 100,> 100
CCCCc1c(O)nc(Nc2nc3ccccc3[nH]2)[nH]c1=O,,> 100,> 100,,> 100,,> 100,,> 100,,> 100,,> 100,> 100,,,> 100,> 100
O=c1oc2ccccc2c(O)c1C(c1cc(OCc2ccccc2)cc(OCc2ccccc2)c1)c1c(O)c2ccccc2oc1=O,,11.8,51.2,,14.7,,68.4,,6.08,,51.8,,17.9,38.1,,19.9,,83.9
O=C1CC2(C[C@@H]3CCCCCCCCC[C@@H](C3)C2)N1 (stereo not given in full),,34,27.9,,34.6,,36.3,,51.1,,31.5,,34.6,,,27.8,,
CCOC(=O)c1c(NC(=O)c2ccccc2)sc2c1CCCC2,,> 100,> 100,,> 100,,,,> 100,,> 100,,> 100,> 100,,> 100,> 100,> 100
COc1ccc(-c2c(C#N)c(N)n(C3OC(CO)C(O)C(O)C3O)c(=S)c2C#N)cc1 (stereo not given),,> 100,> 100,,> 100,,> 100,,> 100,,> 100,,> 100,> 100,,> 100,> 100,
CCOc1ccc(N/C(=C(/C(Cl)=C(/Cl)NCCN)[N+](=O)[O-])n2nnc3ccccc32)cc1,,38,,,> 100,,> 100,,> 100,,> 100,,> 100,> 100,,> 100,> 100,> 100
Cc1cccc(N2C(=O)C3ON(C(C(N)=O)c4ccccc4)C(c4c5ccccc5c(Cl)c5ccccc45)C3C2=O)c1C (stereo not given),,22,32.4,,8.08,,25.3,,,,41.7,,18.4,32.1,,24.2,10,37.1
COc1ccc2nc(-c3ccc(OCc4ccccc4)cc3)ccc2c1,,,> 100,,> 100,,> 100,,> 100,,> 100,,> 100,,,> 100,,
CC1C(c2cc(C(C)(C)C)c(O)c(C(C)(C)C)c2)c2cc3c(cc2OC1N1CCOCC1)OCO3 (stereo not given),,,> 100,,> 100,,,,> 100,,40.5,,40.5,> 100,,29.8,> 100,87.4
O=C(Cc1nc2ccc(C(=O)c3ccccc3)cc2[nH]c1=O)C(=O)Nc1ccc(Br)cc1,,> 100,> 100,,> 100,,> 100,,> 100,,> 100,,,> 100,,> 100,> 100,> 100
CC(C)(C)OC(=O)NC(C)(C)C(=O)NCCC(=O)O,,> 100,> 100,,> 100,,> 100,,> 100,,> 100,,> 100,> 100,,> 100,,> 100
COc1ccc(C2C(Cl)C(=O)N2NC(=O)c2ccc(NC(C)=O)cc2)cc1 (stereo not given),,> 100,> 100,,,,> 100,,,,> 100,,> 100,,,> 100,,
c1cc(-c2cnc(-c3ccc4c(c3)CCCO4)o2)ccn1,,31.6,36.5,,,,42.3,,23.6,,32.2,,40.9,47.2,,25.3,27.8,41.3
CCCN=C1CC(C)Nc2ccccc2N1 (stereo not given),,> 100,> 100,,> 100,,> 100,,> 100,,> 100,,> 100,,,> 100,> 100,> 100
O=c1c2c3ccccc3[nH]c2c2cccc3c2n1CCC3,,> 100,> 100,,> 100,,,,,,> 100,,> 100,> 100,,,> 100,> 100

Structure (SMILES),GI50 (HCT-15 colon) [µM],TGI (HCT-15 colon) [µM],TGI (IGROV1 ovarian) [µM],GI50 (KM12 colon) [µM],TGI (KM12 colon) [µM],GI50 (NCI/ADR-RES ovarian) [µM],TGI (OVCAR-4 ovarian) [µM],GI50 (RPMI-8226 leukemia) [µM],TGI (RPMI-8226 leukemia) [µM],GI50 (SK-MEL-28 melanoma) [µM],TGI (SK-MEL-28 melanoma) [µM],GI50 (SNB-19 CNS) [µM],TGI (SNB-19 CNS) [µM],TGI (T-47D breast) [µM],GI50 (UO-31 renal) [µM],TGI (UO-31 renal) [µM],TGI (MDA-N) [µM],TGI (NCI/ADR-RES ovarian) [µM]
COC1(C)CC2N(C(=O)c3ccccc3)N=C(c3ccccc3)CC2(C)O1 (stereo not given),,> 100,> 100,,> 100,,> 100,,> 100,,,,> 100,,,> 100,,
COc1ccc(/C(=C/n2ccnc2)C(=O)c2ccc(OC)c(OC)c2)cc1,,> 100,,,> 100,,> 100,,> 100,,> 100,,> 100,,,> 100,,
CC1(C)CC2(C)CC1CC2O (stereo not given),,> 100,> 100,,> 100,,> 100,,> 100,,> 100,,> 100,,,> 100,> 100,> 100
Cc1ccccc1C1OC1C(=O)c1ccccc1N (stereo not given),,> 100,,,> 100,,> 100,,> 100,,> 100,,> 100,,,> 100,36.3,> 100
N#C/C(=C\NC(=S)Nc1ccc(S(=O)(=O)Nc2ccccn2)cc1)C(N)=O,,> 100,> 100,,> 100,,> 100,,> 100,,> 100,,> 100,,,> 100,> 100,> 100
Oc1ccccc1C(c1cc2c(cc1O)OCO2)N1CCOCC1 (stereo not given),,36.8,35.7,,43,,,,41.7,,38.5,,37.2,33.8,,29.3,37.6,
CCOC(=O)C1=C(C)N(c2ccccc2)C2=C(C(=O)N(c3ccccc3)C2c2ccccc2)C1c1ccccc1 (stereo not given),,,> 100,,> 100,,> 100,,> 100,,> 100,,> 100,,,> 100,,
N#CCCN(c1ccc(C=Nc2cccc([N+](=O)[O-])c2)cc1)S(=O)(=O)c1ccccc1,,,> 100,,> 100,,> 100,,> 100,,> 100,,> 100,,,> 100,,
COc1ccc2c(c1)c1c(n2CCN2CCOCC2)-c2ccccc2CC1,,> 100,> 100,,> 100,,> 100,,64.2,,> 100,,,> 100,,> 100,> 100,> 100
Cc1c(/C=N\NC(=S)N2CCN(C(=S)N/N=C\c3c(C)n(C)n(-c4ccccc4)c3=O)CC2)c(=O)n(-c2ccccc2)n1C,,> 100,,,> 100,,> 100,,,,,,> 100,> 100,,> 100,,> 100
Nc1nc2ncc(SCc3ccc(C(=O)NC(CCC(=O)O)C(=O)O)cc3)cc2c(=O)[nH]1 (stereo not given),,> 100,> 100,,> 100,,> 100,,> 100,,> 100,,> 100,,,> 100,> 100,> 100
c1ccc(C[P+]2(c3ccccc3)c3ccccc3-c3ccccc32)cc1,,> 100,> 100,,> 100,,,,> 100,,> 100,,> 100,,,> 100,> 100,
CC(C)=CCN1CC(C)C(=O)Nc2cc(Cl)ccc21 (stereo not given),,80.6,81.9,,59.8,,83.9,,> 100,,> 100,,> 100,> 100,,> 100,54.6,
O=c1[nH]cnc2c(C3OC(CO)C(O)C3O)c[nH]c12 (stereo not given),,,> 100,,> 100,,> 100,,> 100,,> 100,,> 100,> 100,,> 100,> 100,
Cc1c(Cl)ccc2c(=O)c3cccc(CC(=O)O)c3oc12,,> 100,> 100,,> 100,,> 100,,> 100,,> 100,,> 100,,,> 100,> 100,> 100
CC(C)C(Sc1nc(-c2ccccc2)c(-c2ccccc2)[nH]1)C(=O)NNC(=S)Nc1ccccc1 (stereo not given),,33.8,35.7,,28.9,,79.2,,39.6,,41.1,,58.6,,,35.8,,
Clc1cc(N/N=C(/c2ccccc2)c2ncccn2)ncn1,,> 100,36.3,,> 100,,68,,> 100,,> 100,,> 100,,,55.8,> 100,50.8
O=C1CC(C(O)CO)CC(=O)N1 (stereo not given),,> 100,> 100,,> 100,,,,> 100,,> 100,,> 100,> 100,,> 100,> 100,> 100
C[N+](C)(C)CC(=O)N/N=c1\cc(C(=O)Nc2ccc(N=O)cc2C#N)oc2cc(O)ccc12,,> 100,> 100,,> 100,,> 100,,,,> 100,,> 100,,,> 100,,
C=CCN(CC=C)Cn1c(=S)sc2ccccc21,,> 100,> 100,,> 100,,> 100,,,,> 100,,> 100,,,> 100,> 100,> 100
CCOC(=O)C(OCC1CC=CCC1)Sc1ccccc1 (stereo not given),,> 100,> 100,,> 100,,,,> 100,,> 100,,> 100,,,> 100,,
CC(C)(C)OC(=O)NC(Cc1ccc(O)cc1)C(=O)NC(CCCCN)C(=O)NC(Cc1ccc(O)cc1)C(=O)NC(CCCCN)C(=O)ON1C(=O)CCC1=O (stereo not given) (Boc-YKYK-OSu; configuration not given here),,> 100,> 100,,> 100,,,,> 100,,> 100,,> 100,> 100,,> 100,> 100,
